Measurements taken from article PMC9147645, “Food-Derived β-Carboline Alkaloids Ameliorate Lipid Droplet Accumulation in Human Hepatocytes” (Pharmaceuticals, 2022).

Legend:
Format in all cases: cell-based, human
[1] = system: HepG2 cells; test: Lipid droplet accumulation inhibition (LDAI) assay, Oil Red O, oleic acid-loaded cells; details: HepG2 + 0.25 mM oleic acid, vs untreated control (+OA)
Method: LDAI assay: LDAI activity was determined using an Oil Red O assay with 24-well plates (n = 4 per treatment). Staining of LDs in cultured hepatocytes was performed according to the manufacturer’s instructions, based on the Oil Red O staining assay. Briefly, HepG2 cells (1.5 × 10^4/well) were supplemented with 10% FBS, cultured, seeded in 35-mm dishes, and treated with the tested samples after 24 h. Oil Red O, a fat-soluble dye, is widely used for staining neutral lipids in LDs, as described in the Supplementary Materials. […]
2 1.2. Cytotoxicity assay dropwise under ice-cooling. […]
Lipid droplet accumulation inhibition assay and Real-Ti me LDAI acid tryptophan (9) and compound 12 were subjected to acid conversion at 90 °C accumulation in acetic acid to obtain compound 2 (1H and 13C, see in Supporting Information). Lipid droplet accumulation inhibition (LDAI) activity was determined using an Synthesis of Compound 4. To a stirred soln . compound 3 in MeOH was added oilred assay in a 24-well plate according to the manufacturer ’sinstructions (n = 4 with NaOH (2 mol/L). Compound 4 was obtained after stirringthe mixture at 65℃ per each treatment). Real-time oleic induced-LD inhibition was performed by for 5 h. (1H and 13C, see Figures S10 and S11). We also prepared similar using a Nikkon microscope. Morphological analysis of HepG2 cells after compounds without any substituent at the C-1 position in the C-ring using a one- treatment with control(-OA) and (+OA) or compound at different concentrations pot Pictet–Spengler reaction (6-8). was determined by staining with AO/EB.
Synthetic b-carboline alkaloids (1-8): 1.4. Oil Red O Staining.
CAS Registry Number of all the series of synthetic b-carboline alkaloids (1-8) HepG2 cells were cultured and treated in 35 mm dishes, as described above. were subjected to biological evaluation: 1H-Pyrido[3,4-b]indole-3-carboxylic acid, Oil Red O dye was used for LD staining. Oil Red O was dissolved in isopropanol 1-[5-[(acetyloxy)methyl]-2-furanyl]-2,3,4,9-tetrahydro-, methyl ester, (1S-trans)- as 3 mg/mL and diluted with water so that isopropanol became 60%. Oil Red O (9CI) (1,CAS Registry Number 11 5 1 0 7-75-0;11 5 1 0 7-76-1);2,3,4,9-Tetrahydro-1-solutionwasfilteredbya0.4 μm pore syringe filter.For cellular staining, the […]

[2] = system: HepG2 cells; test: LD fluorescence staining assay (Oil Red O / Hoechst); details: 200 μM, HepG2 loaded with OA, Oil Red O and Hoechst 33,342
Method: LD fluorescence staining assay: The staining was performed with modifications based on our previous report. HepG2 cells were seeded in 35 mm glass bottom dishes at 4.0 × 10^5/plate. After 24 h of incubation, OA and all samples were processed for 24 h. Oil Red O staining was performed, then the Hoechst reagent solution mixed with PBS was added and incubated in the dark for 25 min. Images were then captured using a BZ-9000 fluorescence microscope (Keyence Co., Ltd., Osaka, Japan).

[3] = system: adipose triglyceride lipase (ATGL); test: Gene expression, real-time PCR; details: HepG2 + 0.25 mM OA, 200 and 400 μM compound, 24 h, normalized to GAPDH
Method: (§1) To better understand how the supplementation of compounds 2 and 4 during LDA in HepG2 cells affects lipolysis and lipogenesis, we performed gene expression analysis using real-time PCR under the following conditions. Briefly, HepG2 cells (2.0 × 10^5/well) were seeded in 24-well plates (n = 6 per treatment). After 24 h, the cells were treated with PBS, 0.25 mM OA only, 0.25 mM OA plus 200 and 400 μM compound 2, or 0.25 mM OA plus 200 and 400 μM compound 4. After another 24 h, RNA extraction and complementary DNA synthesis were performed, according to the manufacturer’s instructions and a previous study. The sequences of the primers used are shown in the Supplementary Materials, Table S1: adipose triglyceride lipase (ATGL), diacylglycerol O-acyltransferase 1 (DGAT1), sterol regulatory element-binding protein 1 (SREBP1), fatty acid synthase (FASN), stearoyl-CoA desaturase 1 (SCD1), and glyceraldehyde-3-phosphate dehydrogenase (GAPDH). PCR was performed using a CFX 96 Real-Time PCR Detection System (Bio-Rad Laboratories Inc., Hercules, CA, USA) under the following conditions: 95 °C for 30 s, followed by 40 cycles at 95 °C for 5 s, 60 °C for 5 s, and 72 °C for 10 s. All gene expression levels were analyzed using the ΔΔCt method and normalized to GAPDH. Data were represented as relative expression based on that of the control group.

[4] = system: diacylglycerol O-acyltransferase 1 (DGAT1); test: Gene expression, real-time PCR; details: HepG2 + 0.25 mM OA, 200 and 400 μM compound, 24 h, normalized to GAPDH
Method: as §1

[5] = system: stearoyl-CoA desaturase 1 (SCD1); test: Gene expression, real-time PCR; details: HepG2 + 0.25 mM OA, 200 and 400 μM compound, 24 h, normalized to GAPDH
Method: as §1

[6] = system: sterol regulatory element-binding protein 1 (SREBP1); test: Gene expression, real-time PCR; details: HepG2 + 0.25 mM OA, 200 and 400 μM compound, 24 h, normalized to GAPDH
Method: as §1

[7] = system: fatty acid synthase (FASN); test: Gene expression, real-time PCR; details: HepG2 + 0.25 mM OA, 200 and 400 μM compound, 24 h, normalized to GAPDH
Method: as §1

[8] = system: HepG2 cells; test: Accumulated triacylglycerol species by LC-MS/MS in oleic acid-loaded cells; details: for Number of accumulated triacylglycerol molecular species inhibited: 24 h of treatment; for inhibition at 200 µM: Homo sapiens, HepG2, 24 h
Method: Tested compounds (200 μM) were added to cultured HepG2 cells loaded with oleic acid and incubated at 37 °C for 24 h, as previously described. Centrifuged samples were analyzed using an LC/MS orbitrap. Chromatographic separation was performed using a Shimadzu Prominence UHPLC system with a binary solvent delivery system and a standard auto-sampler. An Atlantis® T3 column (2.1 × 150 mm, 3 μm, Waters) was used for separation, with a flow rate of 200 μL/min. The mobile phase consisted of A: 10 mM ammonium acetate solution; B: isopropanol; and C: methanol. Positive mode: 0–1 min, 6% B and 90% C; 1–10 min, 83% B and 15% C; 10–19 min, 83% B and 15% C; 19–19.5 min, 6% B and 90% C; 19.5–22 min, 6% B and 90% C. The injection volume was 10 μL. The column temperature was maintained at 40 °C. The LC/MS parameters were as previously described.

[9] = 24 h, HepG2 + OA, vs control (+OA), read-out: Inhibition of accumulated TAG 48:4
[10] = 24 h, HepG2 + OA, vs control (+OA), read-out: Inhibition of accumulated TAG 50:3
[11] = 24 h, HepG2 + OA, vs control (+OA), read-out: Inhibition of accumulated TAG 50:5
[12] = 24 h, HepG2 + OA, vs control (+OA), read-out: Inhibition of accumulated TAG 52:4
[13] = 24 h, HepG2 + OA, vs control (+OA), read-out: Inhibition of accumulated TAG 52:5
[14] = 24 h, HepG2 + OA, vs control (+OA), read-out: Inhibition of accumulated TAG 52:6
[15] = 24 h, HepG2 + OA, vs control (+OA), read-out: Inhibition of accumulated TAG 52.7
[16] = 24 h, HepG2 + OA, vs control (+OA), read-out: Inhibition of accumulated TAG 54:7
[17] = 24 h, HepG2 + OA, vs control (+OA), read-out: Inhibition of accumulated TAG 56.9

| SMILES | inhibition at 200 µM ([1]; Homo sapiens, HepG2, 24 h) | inhibition at 400 µM ([1]; Homo sapiens, HepG2, 24 h) | LDs in fluorescence image [2] | ATGL gene expression [3] | DGAT1 gene expression [4] | SCD1 gene expression [5] | SREBP1 gene expression [6] | FASN gene expression [7] | Number of accumulated triacylglycerol molecular species inhibited ([8]; 200 μM, HepG2 + OA) | inhibition at 200 µM [8, 9] | inhibition at 200 µM [8, 10] | inhibition at 200 µM [8, 11] | inhibition at 200 µM [8, 12] | inhibition at 200 µM [8, 13] | inhibition at 200 µM [8, 14] | inhibition at 200 µM [8, 15] | inhibition at 200 µM [8, 16] | inhibition at 200 µM [8, 17] | further results |
| --- | --- | --- | --- | --- | --- | --- | --- | --- | --- | --- | --- | --- | --- | --- | --- | --- | --- | --- | --- |
| O=C(O)C1Cc2c([nH]c3ccccc23)C(c2ccc(CO)o2)N1 (stereo not shown) [Compound 2, 1,2,3,4-tetrahydro-1-(5-(hydroxymethyl)-2-furanyl)-9H-pyrido [3,4-b]indole-3-carboxylic acid] | 29.1% | 74% | significantly inhibited | upregulated | no change | did not induce a significant reduction | significantly downregulated | significantly downregulated | twenty-five | 23.4% | 26.6% | 33.7% | 28.1% | 9.5% | 33.4% | 35.1% | 30% | 28.3% | inhibition at 100 µM ([1]; Homo sapiens, HepG2, 24 h, 100 μM): 25.5%; inhibition at 200 µM ([8]; 24 h, HepG2 + OA, vs control (+OA), read-out: Inhibition of accumulated TAG 56:10): 45.9%; inhibition at 200 µM ([8]; 24 h, HepG2 + OA, vs control (+OA), read-out: Inhibition of accumulated TAG 58:12): 50 to 74%; inhibition at 200 µM ([8]; 24 h, except TAGs 58:12, 46:3, 54:6, and 56:7, read-out: Inhibition of most of the accumulated triacylglycerol molecular species): 25 to 49% |
| O=C(O)c1cc2c([nH]c3ccccc32)c(-c2ccc(CO)o2)n1 [Compound 4, flazin] | 20% | 77.5% | significantly inhibited | upregulated | no change | strongly downregulated | strongly downregulated | strongly downregulated | twenty | 39% | 49.4% | 72.5% | 51.2% | 49.1% | 65.7% | 70.7% | 66.3% | 71.4% | LDAI ([1]; 100 μM, 24 h): ns; Inhibition of TAGs 52:6; 52:7; 56:10; 56:9; and 62:4 (in words) ([8]; 200 μM, 24 h, HepG2 + OA): total inhibition; inhibition at 200 µM ([8]; 24 h, HepG2 + OA, vs control (+OA), read-out: Inhibition of accumulated TAG 46:3): 28.9%; inhibition at 200 µM ([8]; 24 h, HepG2 + OA, vs control (+OA), read-out: Inhibition of accumulated TAG 54:6): 49.4%; inhibition at 200 µM ([8]; 24 h, HepG2 + OA, vs control (+OA), read-out: Inhibition of accumulated TAG 56:7): 49.1%; inhibition at 200 µM ([8]; 24 h, HepG2 + OA, vs control (+OA), read-out: Inhibition of accumulated TAG 56:8): 58.1%; inhibition at 200 µM ([8]; 24 h, HepG2 + OA, vs control (+OA), read-out: Inhibition of accumulated TAG 58:11): 65.2%; inhibition at 200 µM ([8]; 24 h, HepG2 + OA, vs control (+OA), read-out: Inhibition of accumulated TAG 60:12): 66.4%; inhibition at 200 µM ([8]; 24 h, HepG2 + OA, vs control (+OA), read-out: Inhibition of accumulated TAG 62:14): 76.4% |
